Assay [1] addresses hACMSD (ACMSD1) (Homo sapiens (Human), UniProt Q8TDX5). The assay is described as follows: Determination of ACMSD1 inhibition, spectrophotometrical in vitro assay. The note with it: HAA concentration of 10 μM. The assay is classed as biochemical. As for the experimental part: The activity of compounds as inhibitors of ACMSD1 is determined in a spectrophotometrical in vitro assay. The pre-assay mixture is incubated and a compound of Formula (I), Formula (Ia), Formula (Ib), Formula (II), or Formula (III), or a pharmaceutically acceptable salt thereof, and ACMSD1 solution is then added. The effect of ACMS concentration on the enzyme activity is investigated by varying 3-hydroxyanthranilic acid (3OH-HA) concentration in the pre-assay mixture. Kinetic parameters are calculated from the initial velocity data using a Lineweaver-Burk plot.
The activity of compounds 1-19 and 21-23 as inhibitors of ACMSD1 was determined by measuring the conversion of 3OH-Anthranilic Acid into product (i.e., ACMS) in a spectrophotometrical in vitro assay.
The pre-assay mixture consisting of 3-hydroxyanthranilic acid (3OH-HA), 3-hydroxyanthranilic acid, 3,4-diOxygenase (HAO), and a dialyzed crude extract of E. coli BL21 (DE3) cells expressing the recombinant enzyme, was incubated at 25° C. with monitoring of the increase in absorbance at 360 nm due to the formation of ACMS from 3OH-HA. After the reaction was completed within ˜2 mins, an aliquot of ACMSD1 solution (prepared and purified from Pichia Pastoris overexpressing the recombinant enzyme) was added, and the decrease in absorbance at 360 nm was followed at 15 second intervals. The effect of ACMS concentration on the enzyme activity was investigated by varying 3OH-HA concentration from 2 to 20 μM. Kinetic parameters were calculated from the initial velocity data by using the Lineweaver-Burk plot.
The rate of the decrease in absorbance caused by ACMSD1 was calculated by subtracting that of the control reaction mixture without ACMSD from that described above. One unit of ACMSD activity was indicated as the amount of enzyme that converts 1 mmol of ACMS per minute at 25° C. The absence or a reduction of ACMSD1 activity (e.g., by using ACMSD inhibitors) results in a slow ACMS-spontaneous degradation (i.e., cyclization to form quinolic acid).
The enzymatic activity was determined at a HAA concentration of 10 μM in the presence of the compounds in Table 1 below. The compounds were tested at the concentration of about 5 μM and 10 μM and the IC50 was calculated for compounds showing inhibitory activity higher than 50%.

Assay [2] addresses ACMSD-1 (Homo sapiens (Human), UniProt Q8TDX5). The assay is described as follows: ACMSD-1 modulation in HEK293T cells transiently expressing ACMSD. The note with it: about 50 nM to about 5 uM; stimulated 48 hrs to 72 hrs. The assay is classed as cell-based.
Experimental: HEK293T cells are seeded and transfected to transiently express ACMSD. […] The amount of the whole protein content in cell lysates is detected by Bradford analysis and used to get the specificity activity of the enzyme normalized in all samples.
HEK293T cells (ATCC) were seeded in six-well plates and transfected using Fugene HD to express transiently ACMSD. […] The amount of the whole protein content in cell lysates was detected by Bradford analysis. This value was used to get the specificity activity of the enzyme normalized in all samples (mU/ml or ΔE/Δt/mg of total protein).
In assay [3] the test system is SIRT1-regulated genes in AML-12 cells. The assay is described as follows: RT-qPCR analysis of SIRT1-regulated genes in AML-12 cells. The assay is classed as cell-based, mouse. To be noted: 24 hrs. The protocol: (§1) Cells (AML-12, Hepa-1.6, HEK-293, primary human and murine hepatocytes) are treated with different concentrations of a compound of Formula (I), Formula (Ia), Formula (Ib), Formula (II), or Formula (III), or a pharmaceutically acceptable salt thereof and the gene expression of ACMSD, Pgc1a, Sod1, and Sod2 (MnSOD) is determined using RT-qPCR. Total RNA is extracted from cells and the extracted RNA is treated with DNase and used for reverse transcription (RT).
(§2) Gene expression of ACMSD and genes known to be regulated by SIRT1, (an enzyme that is strictly NAD^+ dependent) such as Pgc1a, Sod1, Sod2 (MnSOD), were analysed in AML-12 cells, Hepa-1.6 cells and primary murine hepatocytes treated with Compound 1 or 17.
(§3) Cells (AML-12, Hepa-1.6, HEK-293, primary human and murine hepatocytes) were treated with different concentrations of Compound 1 or Compound 17. Total RNA was extracted from cells using TRIzol (Invitrogen) according to the manufacturer's instructions. The RNA was treated with DNase, and 2 μg of RNA was used for reverse transcription (RT). 50× diluted cDNA was used for RT-quantitative PCR (RT-qPCR) reactions. The RT-qPCR reactions were performed using the Light-Cycler system (Roche Applied Science) and a qPCR Supermix (QIAGEN) with the indicated primers. The average of at least three technical repeats was used for each biological data point.
On the technique in general: Real-time PCR tracks product formation cycle by cycle.

The subject of assay [4] is SIRT1-regulated genes in Hepa-1.6 cells. The assay is described as follows: RT-qPCR analysis of SIRT1-regulated genes in Hepa-1.6 cells. The assay is classed as cell-based. To be noted: Hepa-1.6 hepatic cell line, 24 hrs. As for the experimental part: as §1, §2, §3
Assay [5] deals with SOD2 activity in primary murine hepatocytes. The assay is described as follows: Modulation of SOD2 activity in murine primary hepatocytes. The class given is cell-based, mouse. As for the experimental part: Primary hepatocytes or AML-12 cells are lysed and total protein concentration is determined using the Bradford assay. SOD2 activity is determined at indicated times after treatment with a compound of Formula (I), Formula (Ia), Formula (Ib), Formula (II), or Formula (III), or a pharmaceutically acceptable salt thereof, using a SOD Assay Kit. Absorbance is determined and results are expressed in U/ml/mg of protein according to the standard curve and measured protein concentration.
Primary hepatocytes were prepared from 8-12-week-old C57BL/6J mice by collagenase perfusion method. […] Cell viability was assessed by the trypan blue method. […]
Primary hepatocytes or AML-12 cells were then lysed in a 20 mM HEPES buffer (Gibco), pH 7.2, containing 1 mM EGTA (Sigma), 210 mM mannitol (Sigma), and 70 mM sucrose (AMRESCO). Total protein concentration was determined using the Bradford assay (BioRad). SOD-2 activity was determined at indicated times after ACMSD inhibitor treatment by the SOD Assay Kit (Cayman Chemical) according to the manufacturer's instructions. […] Absorbance was determined with a Victor X4 multi-label plate reader (Perkin-Elmer) at 450 nm. Results are expressed in U/ml/mg of protein according to the standard curve and measured protein concentration.

Assay [6] has as its system murine primary hepatocytes. Kind of assay: NAD+ content in murine primary hepatocytes (HPLC, mass spectrometry). The assay is classed as cell-based, mouse. To be noted: 24 hours. From the text: NAD^+ is extracted using acidic extraction method and samples are collected and homogenized. After insoluble protein parts are pelleted, the samples are separated by high-performance liquid chromatography (HPLC) and analyzed by mass-spectrometry. The proteins in the pellet are quantified by Bradford assay and are used for normalization.
NAD^+ was extracted using acidic extraction method. Samples were collected and homogenized in 70% ice-cold perchloric acid (HClO4). After insoluble protein parts were pelleted by adding potassium carbonate (K2CO3), the samples were separated by high-performance liquid chromatography (HPLC) and analyzed by mass-spectrometry. The proteins in the pellet were quantified by Bradford assay and were used for normalization.

Assay [7] has as its system SIRT1-regulated genes (Pgc1a, Sod1, Sod2) in primary mouse hepatocytes. Kind of assay: RT-qPCR analysis of SIRT1-regulated genes in primary murine hepatocytes. The class given is cell-based. To be noted: 24 hrs, 5 nM-500 nM range. The protocol:
as §1
Primary hepatocytes were prepared from 8-12-week-old C57BL/6J mice by collagenase perfusion method. Mouse livers were perfused with Hank's balanced salt solution (HBSS, KCl, 5.4 mM; KH2PO4, 0.45 mM; NaCl, 138 mM; NaHCO3, 4.2 mM; Na2HPO4, 0.34 mM; glucose, 5.5 mM; HEPES, 1 M; EGTA, 50 mM; CaCl2), 50 mM; pH 7.4). Livers were then washed at a rate of 5 ml/min through the portal vein. After washing, livers were perfused with collagenase (0.025%) solution. Cell viability was assessed by the trypan blue method. Isolated primary hepatocytes were plated with DMEM medium (Gibco) including 10% FCS, 10 units per ml penicillin and HEPES for buffering. The cells were maintained in culture at 37° C. in a humidified atmosphere of 5% CO2/95% air. After 6-8 hrs of attachment, this medium was replaced with media containing different concentrations of an ACMSD inhibitor (i.e., Compound 1 or Compound 17) or with the corresponding concentration of DMSO (as a control). Primary hepatocytes were harvested about 24 hrs later if not indicated differently.
as §2
Cells (AML-12, Hepa-1.6, HEK-293, primary human and murine hepatocytes) were treated with different concentrations of Compound 1 or Compound 17. Total RNA was extracted from cells using TRIzol (Invitrogen) according to the manufacturer's instructions. […] 50× diluted cDNA was used for RT-quantitative PCR (RT-qPCR) reactions. […]

SMILES strings stand for the structures.

For orientation: IC50 means the concentration that inhibits the measured activity by half. Higher therefore signals a need for much substance.

Sequence of hACMSD (ACMSD1) (Q8TDX5 whole entry): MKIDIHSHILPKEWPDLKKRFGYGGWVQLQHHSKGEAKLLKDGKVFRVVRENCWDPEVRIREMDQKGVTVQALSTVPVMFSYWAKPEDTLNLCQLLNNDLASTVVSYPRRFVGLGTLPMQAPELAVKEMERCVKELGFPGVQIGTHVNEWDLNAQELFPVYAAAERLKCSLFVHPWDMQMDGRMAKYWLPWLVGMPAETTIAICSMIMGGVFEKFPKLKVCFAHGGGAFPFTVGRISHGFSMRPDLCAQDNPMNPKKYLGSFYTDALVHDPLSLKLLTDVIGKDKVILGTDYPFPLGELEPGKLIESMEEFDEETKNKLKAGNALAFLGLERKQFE
Sequence of ACMSD-1 (Q8TDX5 whole entry): as above

`N#Cc1c(-c2ccccc2)nc(SCc2cccc(C(=O)O)c2)[nH]c1=O` [Compound 1] had an IC50 in assay [1] of 50 nM. Further, the “ACMSD-1 activity in transfected HEK293T cells” value in assay [2] is listed as “inhibited ACMSD-1 activity, in a dose dependent manner”. The “Sod2 mRNA levels” value in assay [3] and in assay [4] was “increased in a dose-dependent manner” in each case.

Take `N#Cc1c(-c2cccs2)nc(SCc2cccc(-c3nn[nH]n3)c2)[nH]c1=O` [Compound 17]: in assay [1], 5 nM corresponded to half-maximal inhibition (IC50). The “dose at which SOD2 effect reached a maximum” value in assay [5] is given as “about 50 nM”. Also, in assay [6], the “lowest concentration with significant effect on NAD+ levels” value is recorded as not above 5 nM. Further, in assay [7], the “Pgc1a mRNA expression level” value was “dose-dependent increase”, the “Sod1 (Cu-Zn SOD) mRNA expression level” value is reported as “but not Sod1” and the “Sod2 (MnSOD) mRNA expression level” value is “dose-dependent increase”.
